Assay results taken from article PMC8954523 (Pharmaceutics, 2022).
Several values for one entry are separate records, joined by “and”; a condition that tells them apart may be missing. Equal entries are not always repeated.

How the values were obtained:
[1] = Apparent distribution coefficient, 1-octanol/water, isothermal shake-flask; assay type: physicochemical; settings: 298.15 K
Experimental: The well-known isothermal shake-flask method was applied for the determination of the apparent distribution coefficients in the 1-octanol/water ( Dappoct/w ) and n-hexane/water ( Dapphex/w ) systems. The mutually saturated solvents were prepared by mixing water and organic phases for 24 h and settling and separating from each other. The stock solutions of the drug were made from 1-octanol saturated with water for the 1-octanol/water distribution, and n-hexane saturated with water for the n-hexane/water system. An aliquot of the stock solution was placed in a glass vial together with an aliquot of the respective phase and mixed for 24 h at five temperatures, from 293.15 to 313.15 K (±0.1 K). The concentrations of the compounds were determined spectrophotometrically (Shimadzu 1800, Kyoto, Japan) in a UV region, with an accuracy of 2–4%. The reported experimental values represent the average of at least four replicate experiments.
(§1) The apparent distribution coefficients were calculated from the molar concentrations of the substance in the phases using the following equation:(10) DCorg/w=C2org/w/C2w/org where DCorg/w is the apparent distribution coefficient, C2org/w and C2w/org are the concentrations (M) of the compound after the distribution in the 1-octanol or n-hexane and water phases, respectively. The apparent distribution coefficients in the mole fraction scale ( DXorg/w ) were calculated by the equation:(11) DXorg/w=X2org/w/X2w/org where X2org/w and X2w/org are the concentrations (mole fract.) of the compound after distribution. The standard Gibbs energy of the transfer ( ΔGtr0) from water to the organic phase was calculated as follows:(12) ΔGtr0=−RT(lnDXorg/w)

[2] = Transfer thermodynamic functions from distribution experiments (real transfer); assay type: physicochemical; settings: 298.15 K
Experimental: as §1
The transfer enthalpy ( ΔHtr0) was derived from the temperature dependences of the distribution coefficients by the van’t Hoff approach as:(13) ∂(lnDXorg/w)/∂T=ΔHtr0/RT^2
The standard transfer entropy ( ΔStr0 ) was determined by the equation:(14) ΔGtr0=ΔHtr0−TΔStr0
As follows, additional information on the thermodynamic functions of this parameter (enthalpies and entropies) was obtained from the temperature dependences in order to disclose the transfer (n-hexane → 1-octanol) thermodynamic mechanisms. To this end, the ∆ln DX values (expressed in mole fraction units) characterizing the transfer (n-hexane → 1-octanol) were calculated as ∆ln DX = ln DXoct/w − ln DXhex/w and the respective thermodynamic functions were determined using Equations (12)–(14). The resulting temperature dependences and the contributions of the enthalpy and entropy terms to the free Gibbs energy of the hypothetical and “real” transfers are shown in Figure 5 and Table 6. […] At the same time, the thermodynamic mechanism of the (n-hexane → 1-octanol) transfer differs from the (water → organic solvents) transitions. In particular, the (n-hexane → 1-octanol) transfer process is enthalpy determined (| ΔHtr0 | > | TΔStr0 |) similar to the (water → 1-octanol) one. Nevertheless, TΔStr0 < 0 testifies to the ordering of the system as opposed to water → 1-octanol and water → n-hexane ( TΔStr0 > 0). It can be concluded that the mechanism of the (n-hexane → 1-octanol) transfer is absolutely different from the (water → n-hexane) and partially agrees with the (water → 1-octanol) transition. Importantly, the regularities estimated from the transferring diagram analysis match the results obtained using the Hansen parameters ( Δδt ^water > Δδt ^n-hexane > Δδt ^1-octanol).

[3] = n-hexane → 1-octanol, from Δ lnDX
[4] = water → 1-octanol, real transfer
[5] = water → n-hexane, real transfer

With `CC(O)(CS(=O)(=O)c1ccc(F)cc1)C(=O)Nc1ccc(C#N)c(C(F)(F)F)c1` (stereo not shown) [BCL, bicalutamide] the “experimental over calculated distribution coefficient” value ([1]; 1-octanol/water) was 3.3 fold, the logP at 24 h ([1]; 1-octanol/water, read-out: logDCoct/w, experimental) was 2.82 ± 0.09 and the “DCoct/w, experimental apparent distribution coefficient” value ([1]; 1-octanol/water, molarity scale) was 662.29 ± 20.22. For the same molecule, the “∆logDcalc” value ([1]; from calculated distribution coefficients) was 2.30, the “∆logD” value ([1]; logDCoct/w − logDChex/w, experimental) was 2.55 and the “DC/calcoct/w, calculated distribution coefficient” value ([1]; ratio of molar solubilities in 1-octanol and water) was 199.02 ± 12.00. For the same molecule, the “DXorg/w (Δ lnDX parameter line)” value ([2]; 1-octanol/n-hexane (n-hexane → 1-octanol), mole fraction scale) was 425.33, the TΔStr0 [2, 3] was -4.18 kcal/mol and the ΔGtr0 [2, 3] was -3.59 ± 0.096 kcal/mol. The ΔHtr0 [2, 3] was -7.77 ± 0.382 kcal/mol, the ΔStr0 [2, 3] was −58.7 ± 4.1 J⋅mol^−1⋅K^−1 and the TΔStr0 [2, 4] was 1.55 kcal/mol. For the same molecule, the ΔGtr0 [2, 4] was -5.14 kcal/mol and -5.14 ± 0.096 kcal/mol, the ΔHtr0 [2, 4] was -3.59 ± 0.048 kcal/mol and the ΔStr0 [2, 4] was 21.8 ± 0.7 J⋅mol^−1⋅K^−1. For the same molecule, the TΔStr0 [2, 5] was 5.76 kcal/mol, the ΔGtr0 [2, 5] was -1.55 kcal/mol and -1.55 ± 0.048 kcal/mol and the ΔHtr0 [2, 5] was 4.21 ± 0.43 kcal/mol. It also gave a ΔStr0 [2, 5] of 80.8 ± 9.9 J⋅mol^−1⋅K^−1.
